Experimental data published in patent US20250332173A1, “COMPOUNDS AND METHODS FOR MODULATING NUCLEIC ACID SPLICING” (REMIX THERAPEUTICS INC., priority 2021, published 2025).
Read-outs that look alike come from different tables or passages of the source.

Legend:
HTT mRNA = assay: RT-qPCR splicing assay, HTT canonical junction (CJ) and alternative junction (AJ) mRNA; assay type: cell-based, human; details: Homo sapiens; for AC50: increase in HTT alternative junction (AJ) mRNA, read-out: HTT AJ AC50
In short: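 Following a 24-hour incubation of A673 or K562 cells with serially diluted compound (3-fold steps, highest final 10 uM), the lysates undergo cDNA synthesis plus qPCR. Canonical and alternative junctions are each quantified against PPIA, GAPDH or GUSB.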

Target C = assay: RT-qPCR splicing assay panel, Target C canonical junction (CJ) mRNA; assay type: cell-based, human; details: Homo sapiens; Table 5 panel; canonical junction qPCR; compound concentration having 50% response in CJ decrease; read-out: Target C IC50 (decrease in CJ mRNA levels)
In short: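 Canonical exon-exon junction transcript levels measured by one-step RT-qPCR of cell lysates, normalized to a housekeeping gene (GAPDH, GUSB or PPIA). Cells used were A673 or K562, exposed for 24 h to compound in 11-point, 3-fold series from 10 uM, with final DMSO at or below 0.25%.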

[1] = decrease in HTT canonical junction (CJ) mRNA, RT-qPCR, read-out: HTT CJ IC50
[2] = Table 5 panel, canonical junction qPCR, compound concentration having 50% response in CJ decrease, read-out: HTT IC50 (decrease in CJ mRNA levels)

SMILES | IC50 (HTT mRNA; [1]) [µM] | AC50 (HTT mRNA; RT-qPCR) [µM] | IC50 (HTT mRNA; [2]) [µM] | IC50 (Target C) [µM]
Cc1cn2nc(-c3ccc4c(c3)CCN(C3CCNC3)C4=O)cc(C)c2n1 (stereo not drawn) [Compound 269] | > 10 | > 10 | > 10 | > 10
Cc1cn2cc(-c3ccc4c(=O)n(C5CCNCC5)ccc4c3)cc(F)c2n1 [Compound 276] | < 0.1 | < 0.1 | < 0.1 | < 0.1
Cc1cn2cc(-c3ccc4c(=O)n(C5CCN[C@@H](C)C5)cnc4c3)cc(F)c2n1 (stereo partly drawn) [Compound 294] | 1 to 10 | 1 to 10 | 1 to 10 | 1 to 10
Cc1cn2nc(-c3ccc4c(=O)n(C5CCN(C)CC5)cnc4c3F)cc(C)c2n1 [Compound 290] | 0.1 to 1 | 0.1 to 1 | 0.1 to 1 | 0.1 to 1
CN1CCC(n2cnc3cc(-c4cn[nH]c4)ccc3c2=O)CC1 [Compound 299] | > 10 | > 10 | > 10 | > 10
CNc1cc(-c2cc(F)c3nc(C)cn3c2)cc2ncn(C3CCNCC3)c(=O)c12 [Compound 358, 7-{8-fluoro-2-methylimidazo[1,2-a]pyridine-6-yl}-5-(methylamino)-3-(piperidin-4-yl)quinazolin-4-one] | > 10 | 1 to 10 | 1 to 10 | > 10
Cc1cn2cc(-c3ccc4c(=O)n(C5CCNCC5)cnc4c3)cc(C(F)(F)F)c2n1 [Compound 306] | 1 to 10 | 1 to 10 | 1 to 10 | 1 to 10
Cc1cn2nc(-c3ccc4c(=O)n(C5CCN(C)CC5)ccc4c3)cc(C)c2n1 [Compound 310] | 0.1 to 1 | 0.1 to 1 | 0.1 to 1 | 0.1 to 1
CCN1CCC(N2CCc3cc(-c4cc(C)c5nc(C)cn5n4)ccc3C2=O)CC1 [Compound 270] | 1 to 10 | 1 to 10 | 1 to 10 | > 10
Cc1cn2nc(-c3ccc4c(c3)CCN(C3CCN(C)CC3)C4=O)cc(C)c2n1 [Compound 268] | 1 to 10 | 1 to 10 | 1 to 10 | > 10
Cc1cn2nc(-c3ccc4c(=O)n(C5CCNC6(CC6)C5)ncc4c3)cc(C)c2n1 (stereo not drawn) [Compound 274] | < 0.1 | < 0.1 | < 0.1 | < 0.1
Cc1cc(-c2cc(F)c3c(=O)n(C4CCNC5(CC5)C4)cnc3c2)nc2cn(C)nc12 (stereo not drawn) [Compound 361, 3-{4-azaspiro[2.5]octan-7-yl}-7-{2,7-dimethylpyrazolo[4,3-b]pyridin-5-yl}-5-fluoroquinazolin-4-one] | < 0.1 | < 0.1 | < 0.1 | 0.1 to 1
Cc1cn2nc(-c3ccc4c(c3)CCN(C3CCN(C)C3)C4=O)cc(C)c2n1 (stereo not drawn) [Compound 282] | > 10 | > 10 | > 10 | > 10
Cc1cn2nc(-c3ccc4c(=O)n(C5CCN(C)CC5)cnc4c3)nc2c(C)n1 [Compound 288, 7-{6,8-dimethyl-[1,2,4]triazolo[1,5-a]pyrazin-2-yl}1-3-(1-methylpiperidin-4-yl)quinazolin-4-one] | 1 to 10 | 1 to 10 | 1 to 10 | 1 to 10
Cc1cn2nc(-c3cc(F)c4c(=O)n([C@H]5CCNC6(CC6)C5)cnc4c3)cc(C)c2n1 (single isomer, unassigned) [Compound 357] | < 0.1 | < 0.1 | < 0.1 | < 0.1
Cc1cn2nc(-c3cc(F)c4c(=O)n([C@@H]5CCNC6(CC6)C5)cnc4c3)cc(C)c2n1 [Compound 356] | < 0.1 | 0.1 to 1 | 0.1 to 1 | 0.1 to 1
Cc1cn2cc(-c3cc(F)c4c(=O)n(C5CCNCC5(F)F)cnc4c3)cc(F)c2n1 (stereo not drawn) [Compound 339] | > 10 | 1 to 10 | 1 to 10 | > 10
Cc1nc2c(F)cc(-c3ccc4c(=O)n(C5CCN(C)CC5)cnc4c3)cc2o1 [Compound 300] | 1 to 10 | 0.1 to 1 | 0.1 to 1 | 1 to 10
Cc1cn2nc(-c3ccc4c(=O)n([C@@H]5CCN[C@H](C)C5)ncc4c3)cc(C)c2n1 [Compound 272] | 0.1 to 1 | < 0.1 | < 0.1 | 0.1 to 1
CNc1cc(-c2cn3cc(C)nc3c(C)n2)cc2ncn(C3CCNCC3)c(=O)c12 [Compound 360, 7-{2,8-dimethylimidazo[1,2-a]pyrazine-6-yl}-5-(methylamino)-3-(piperidin-4-yl)quinazolin-4-one] | > 10 | > 10 | > 10 | > 10

SMILES | IC50 (HTT mRNA; [1]) [µM] | AC50 (HTT mRNA; RT-qPCR) [µM] | IC50 (HTT mRNA; [2]) [µM] | IC50 (Target C) [µM]
Cc1cn2cc(-c3cc(F)c4c(=O)n([C@H]5CCNC[C@@H]5O)cnc4c3)cc(F)c2n1 [Compound 347, 5-fluoro-7-{8-fluoro-2-methylimidazo[1,2-a]pyridin-6-yl}-3-[(3S,4S)-3-hydroxypiperidin-4-yl]quinazolin-4-one] | > 10 | > 10 | > 10 | 1 to 10
Cc1cn2cc(-c3ccc4c(=O)n([C@@H]5CCN[C@H](C)C5)cnc4c3)cc(F)c2n1 [Compound 295] | 1 to 10 | 1 to 10 | 1 to 10 | > 10
Cc1cn2cc(-c3cc(F)c4c(=O)n([C@H]5CCN[C@H](C)C5)cnc4c3)cc(F)c2n1 [Compound 346, trans-5-fluoro-7-(8-fluoro-2-methylimidazo[1,2-a]pyridin-6-yl)-3-(2-methylpiperidin-4-yl)quina-zolin-4(3H)-one] | 0.1 to 1 | 0.1 to 1 | 0.1 to 1 | 0.1 to 1
Cc1cn2cc(-c3ccc4c(=O)n(C5CCNCC5)cnc4c3)ncc2n1 [Compound 297] | 1 to 10 | 1 to 10 | 1 to 10 | 1 to 10
Cn1cc2cc(-c3cc(F)c4c(=O)n(C5CCNCC5)cnc4c3)cc(C#N)c2n1 [Compound 316] | 0.1 to 1 | 0.1 to 1 | 0.1 to 1 | 0.1 to 1
Cc1cn2cc(-c3ccc4c(=O)n(C5CCNCC5)cnc4c3)cc(C)c2n1 [Compound 292] | 0.1 to 1 | 0.1 to 1 | 0.1 to 1 | 1 to 10
Cc1cn2nc(-c3cc(F)c4c(=O)n(C5CCNC6(CC6)C5)cnc4c3)cc(C)c2n1 (stereo not drawn) [Compound 351] | < 0.1 | < 0.1 | < 0.1 | < 0.1
Cc1cn2nc(-c3ccc4c(=O)n([C@@H]5CCN(C)[C@H](C)C5)ncc4c3)cc(C)c2n1 [Compound 277] | 0.1 to 1 | 0.1 to 1 | 0.1 to 1 | 1 to 10
Cc1cn2nc(-c3ccc4c(=O)n(C5CCNC(C)(C)C5)ncc4c3)cc(C)c2n1 (stereo not drawn) [Compound 279] | 0.1 to 1 | 0.1 to 1 | 0.1 to 1 | 0.1 to 1
Cc1cn2cc(-c3ccc4c(=O)n([C@H]5CCN[C@H](C)C5)cnc4c3)cc(F)c2n1 [Compound 296] | 0.1 to 1 | 0.1 to 1 | 0.1 to 1 | 0.1 to 1
CC[C@@H]1C[C@H](n2ncc3cc(-c4cc(C)c5nc(C)cn5n4)ccc3c2=O)CCN1 [Compound 304] | 1 to 10 | 1 to 10 | 0.1 to 1 | 1 to 10
Cc1cn2nc(-c3ccc4c(c3)CCN([C@@H]3CCN[C@H](C)C3)C4=O)cc(C)c2n1 [Compound 281] | 1 to 10 | 1 to 10 | 1 to 10 | 1 to 10
Cc1cn2nc(-c3ccc4c(=O)n(C5CCN(C)C5)ncc4c3)cc(C)c2n1 (stereo not drawn) [Compound 271] | 1 to 10 | 1 to 10 | 1 to 10 | 1 to 10
Cc1cn2cc(-c3cc(F)c4c(=O)n([C@H]5CCNC[C@@H]5F)cnc4c3)cc(F)c2n1 (relative stereo) [Compound 341, 5-fluoro-7-(8-fluoro-2-methylimidazo[1,2-a]pyridin-6-yl)-3-(trans-3-fluoropiperidin-4-yl)quinazolin-4(3H)-one] | 0.1 to 1 | 0.1 to 1 | 0.1 to 1 | 1 to 10
Cc1nc2c(F)cc(-c3ccc4c(=O)n(C5CCNCC5)cnc4c3)cc2s1 [Compound 285] | > 10 | 1 to 10 | 1 to 10 | > 10
Cc1cn2nc(-c3ccc4c(=O)n(C5CCN(C)CC5)cnc4c3)cc2c(C)n1 [Compound 303] | 1 to 10 | 1 to 10 | 1 to 10 | 1 to 10
Cc1cn2nc(-c3cc(O)c4c(=O)n(C5CCNC5)cnc4c3)cc(C)c2n1 (stereo not drawn) [Compound 362, 7-{2,8-dimethylimidazo[1,2-b]pyridazin-6-yl}-5-hydroxy-3-(pyrrolidin-3-yl)quinazolin-4-one] | > 10 | > 10 | > 10 | > 10
CNc1cc(-c2cc(C)c3nc(C)cn3n2)cc2ncn(C3CCNCC3)c(=O)c12 [Compound 359, 7-{2,8-dimethylimidazo[1,2-b]pyridazin-6-yl}-5-(methylamino)-3-(piperidin-4-yl)quinazolin-4-one] | 1 to 10 | 1 to 10 | 1 to 10 | > 10
Cc1cn2cc(-c3cc(F)c4c(=O)n(C5CCNCC5)cnc4c3)nc2c(C)n1 [Compound 319] | 1 to 10 | 1 to 10 | 1 to 10 | 1 to 10
